# From patent US9974795B2, “Anticancer agent composition” (CARNA BIOSCIENCES, INC., priority 2014, dated 2018)
# Key:
# [1] = test system: Colo205 cells; test: FACS of PI-stained cells: cell cycle and rate of cell death (SubG1), Colo205; type: cell-based; settings: for cell death induced by Cdc7 inhibitor on coadministration with Wee1 inhibitor MK-1775: Cdc7 inhibitor 0.1 μM, MK-1775 0.25, 0.5, 0.75 μM, FIG. 1 / FIG. 5; for cell death on coadministration with Chk1 inhibitor SCH900776: Cdc7 inhibitor 0.3 μM or 0.1 μM, SCH900776 3.3 μM, FIG. 9; for cell death on coadministration with Chk1 inhibitor UCN-01 / cell death on coadministration with Hsp90 inhibitor geldanamycin: Cdc7 inhibitor 0.1, 0.03 or 0.3 μM; for cell death on coadministration with Chk1 inhibitor UCN-01: UCN-01 333 nM, FIG. 10; for cell death on coadministration with Hsp90 inhibitor geldanamycin: geldanamycin 10 nM or 33 nM, FIG. 11
# Method: COLO205 (RCB2127, RIKEN BRC) was cultured in a 10-cm dish using an RPMI-1640 medium (Sigma-Aldrich Corp., R8758) supplemented with 10% FCS (Equitech-Bio, Inc.) and 5% penicillin-streptomycin (GIBCO/Thermo Fisher Scientific, Inc., 15140). The medium was removed from the cells in a well grown state (70 to 90% confluent), and the cells were dissociated from the dish by treatment with 2 mL of trypsin (TrypL Express, manufactured by GIBCO/Thermo Fisher Scientific, Inc.) and recovered into the same medium as above.
# (§1) The recovered cells of each line were seeded at 2.5×10^5 cells/ml/well to a 6-well plate (BD Falcon, catalog No. 353046). The cells were cultured overnight in a 5% CO2 incubator. On the next day, 500 μl of a medium supplemented with 1.5 μl of a stock solution having a 1000-fold concentration of each compound to be added was added to each well, […]
# After the reaction of the cells with the compound for 48 to 72 hours, the cells were dissociated from the well by treatment with trypsin (TrypL Express, manufactured by GIBCO/Thermo Fisher Scientific, Inc.) and washed with DPBS. Then, 1 ml of cold ethanol was added thereto, and the cells were stored at −30° C. until staining. The cells were washed with DPBS once before staining and left standing with a propidium iodide (PI) solution at room temperature for 30 minutes or longer in the dark. The cells stained with PI were studied for the cell cycle and the rate of cell death indicated by SubG1 using FACS.
# [2] = test system: MDA-MB-231 cells; test: Cell growth inhibition (number of nuclei, Hoechst 33342) with BLISS score evaluation; type: cell-based, human; settings: 72 hours, Cdc7 inhibitor 19.5 to 10000 nM, MK-1775 7.81 to 1000 nM, FIGS. 12-15
# Method: The BLISS scoring is a criterion often used in the evaluation of the synergistic effect of drugs used in combination (Borisy et al., Proc. Natl. Acad. Sci. USA. 100 (13): 7977-7982 (2003); and Buck et al., Mol. Cancer. Ther. 5 (11) (2006)). This BLISS scoring was used to analyze the effect of the Cdc7 inhibitor and the Wee1 inhibitor used in combination on the inhibition of cancer cell growth. […]
# After the addition of the compounds, the cells were incubated for 72 hours. […] Then, the number of nuclei (the number of cells) was measured using a cell image analyzer (ArrayScan VTI HCS Reader, Thermo Fischer Scientific, Inc.) (Ex/Em=350/461 nm).
# After 72 hours, the average number from the control wells was used as the number of untreated control cells (Gunt72), and the average number from the compound-treated wells was used as the number of compound-treated cells (G72). Wells in which the medium was merely replaced 24 hours after the cell inoculation were counted as an initial value and used as the initial number of cells (G0). […]
# Assuming that the first test compound and the second test compound each acted as a single agent (i.e., the rate of cell growth when the concentration of either of the compounds was 0), the theoretical BLISS independence (BLISSin) of each well can be calculated according to the following expression: BLISSin=G(First test compound)×G(Second test compound) […]
# [3] = test system: Panc-1 cells (pancreatic cancer cell line); test: FACS of PI-stained cells: cell death, Panc-1 cells; type: cell-based; settings: Cdc7 inhibitor 0.1 μM, MK-1775 0.5 and 0.75 μM, FIG. 3
# Method: Panc-1 (ATCC, CRL-1469) was cultured in a 10-cm dish using a D-MEM medium (Sigma-Aldrich Corp., D5796) supplemented with 10% FCS (Equitech-Bio, Inc.) and 5% penicillin-streptomycin (GIBCO/Thermo Fisher Scientific, Inc., 15140). The medium was removed from the cells in a well grown state (70 to 90% confluent), and the cells were dissociated from the dish by treatment with 2 mL of trypsin (TrypL Express, manufactured by GIBCO/Thermo Fisher Scientific, Inc.) and recovered into the same medium as above.
# as §1
# After the reaction of the cells with the compound for 48 to 72 hours, the cells were dissociated from the well by treatment with trypsin (TrypL Express, manufactured by GIBCO/Thermo Fisher Scientific, Inc.) and washed with DPBS. Then, 1 ml of cold ethanol was added thereto, and the cells were stored at −30° C. until staining. The cells were washed with DPBS once before staining and left standing with a propidium iodide (PI) solution at room temperature for 30 minutes or longer in the dark. […]
# [4] = test system: NHDF cells; test: FACS of PI-stained cells: cell death, normal NHDF cells; type: cell-based; settings: Cdc7 inhibitor 0.1 μM, MK-1775 0.25, 0.5, 0.75 μM, FIG. 2
# Method: NHDF cells (Cryo NHDF-NeoCC-2509, manufactured by Sanko Junyaku Co., Ltd.) were cultured in a 10-cm dish using a medium (Brett Kit FGM2, CLCC-3132). The medium was removed from the NHDF cells in a well grown state (70 to 90% confluent), and the cells were washed with 5 mL of HEPES-buffered saline in a subculture reagent set (CLCC-5034, manufactured by Sanko Junyaku Co., Ltd.).
# After removal of the HEPES-buffered saline, the whole dish was covered with 3 mL of a trypsin/EDTA solution included in the set. The cells were dissociated from the dish by giving a small impact on the side of the dish with taps of a hand. Then, 3 mL of a trypsin-neutralizing solution included in the set was added to the cells, which were then recovered.
# as §1
# After the reaction of the cells with the compound for 48 to 72 hours, the cells were dissociated from the well by treatment with trypsin (TrypL Express, manufactured by GIBCO/Thermo Fisher Scientific, Inc.) and washed with DPBS. […]
# [5] = Colo205, Cdc7 inhibitor 0.1 μM or 0.3 μM, MK-1775 0.5 μM, FIG. 8
structure (smiles),measurement,setting,value
"CCOC(=O)C1=C(NN2CCN(CC(F)(F)F)CC2)O/C(=C\c2c[nH]c3ncccc23)C1=O [compound (I-D), ethyl 5-[(1H-pyrrolo[2,3-b]pyridin-3-yl)methylene]-4-oxo-2-{[4-(2,2,2-trifluoroethyl)piperazinyl]amino}-4,5-dihydrofuran-3-carboxylate]",cell death induced by Cdc7 inhibitor on coadministration with Wee1 inhibitor MK-1775,[1]; Colo205,synergistically increased
same,cell death on coadministration with Chk1 inhibitor SCH900776,[1]; Colo205,synergistically increased
same,cell death on coadministration with Chk1 inhibitor UCN-01,[1]; Colo205,synergistically increased
same,cell death on coadministration with Hsp90 inhibitor geldanamycin,[1]; Colo205,synergistically increased
same,inhibition of cancer cell growth in combined use with MK-1775 (BLISS score),[2],synergistically inhibits
same,cell death induced by Cdc7 inhibitor on coadministration with MK-1775,[3],synergistically increased
same,cytotoxicity to normal cells on addition of MK-1775,[4],no increase
"CC(C)OC(=O)C1=C(NN2CCN(CC(F)(F)F)CC2)O/C(=C\c2c[nH]c3ncccc23)C1=O [compound (I-C), isopropyl 5-[(1H-pyrrolo[2,3-b]pyridin-3-yl)methylene]-4-oxo-2-{[4-(2,2,2-trifluoroethyl)piperazinyl]amino}-4,5-dihydrofuran-3-carboxylate]",cell death on coadministration with MK-1775,"[1]; Colo205, compound (I-C) 0.1 μM or 0.3 μM, FIG. 7",synergistically increased
"CCOC(=O)C1=C(N2CCc3ccc(OC)cc3C2)O/C(=C\c2c[nH]c3ncccc23)C1=O [compound (I-B), ethyl 5-[(1H-pyrrolo[2,3-b]pyridin-3-yl)methylene]-2-(7-methoxy-3,4-dihydroisoquinolin-2(1H)-yl)-4-oxo-4,5-dihydrofuran-3-carboxylate]",cell death on coadministration with MK-1775,"[1]; Colo205, compound (I-B) 0.3 μM, FIG. 6",synergistically increased
"CC(C)OC(=O)C1=C(NN2CCOCC2)OC(=Cc2c[nH]c3ncccc23)C1=O [compound (I-A), isopropyl 5-[(1H-pyrrolo[2,3-b]pyridin-3-yl)methylene]-2-(morpholinoamino)-4-oxo-4,5-dihydrofuran-3-carboxylate]",cell death induced by Cdc7 inhibitor on coadministration with Wee1 inhibitor MK-1775,[1]; Colo205,synergistically increased
"O=C(OCC1CC1)C1=C(NN2CCOCC2)O/C(=C\c2c[nH]c3ncccc23)C1=O [compound (I-E), cyclopropylmethyl 5-[(1H-pyrrolo[2,3-b]pyridin-3-yl)methylene]-2-(morpholinoamino)-4-oxo-4,5-dihydrofuran-3-carboxylate]",cell death induced by Cdc7 inhibitor on coadministration with Wee1 inhibitor MK-1775,[1]; Colo205,synergistically increased
same,cell death on coadministration with Chk1 inhibitor SCH900776,[1]; Colo205,synergistically increased
same,cell death on coadministration with Chk1 inhibitor UCN-01,[1]; Colo205,synergistically increased
same,cell death on coadministration with Hsp90 inhibitor geldanamycin,[1]; Colo205,synergistically increased
same,"cell death on coadministration with MK-1775, varied composition","[1]; Colo205, compound (I-E):MK-1775 = 1:100 to 3:1 (ratio by μM), FIG. 4",sufficiently synergistically increased
same,inhibition of cancer cell growth in combined use with MK-1775 (BLISS score),[2],synergistically inhibits
same,cell death induced by Cdc7 inhibitor on coadministration with MK-1775,[3],synergistically increased
same,cytotoxicity to normal cells on addition of MK-1775,[4],no increase
"C=CCn1c(=O)c2cnc(Nc3ccc(N4CCN(C)CC4)cc3)nc2n1-c1cccc(C(C)(C)O)n1 [MK-1775, reference compound]",proportion of cells in the M-phase,[1]; MK-1775 0.1 to 1 μM,increased
"O=C1NCCc2[nH]c(-c3ccncc3)cc21 [compound (I-F), 2-(pyridin-4-yl)-1,5,6,7-tetrahydro-4H-pyrrolo[3,2-c]pyridinone, reference compound]",cell death on coadministration with MK-1775,[1]; [5],synergistically increased
"NC(=O)c1cc(-c2ccnc(N)n2)[nH]c1-c1ccc(Cl)cc1Cl [compound (I-G), 5-(2-amino-pyrimidin-4-yl)-2-(2,4-dichloro-phenyl)-1H-pyrrole-3-carboxylic acid amide, reference compound]",cell death on coadministration with MK-1775,[1]; [5],synergistically increased
